Target: T1, aromatase (Homo sapiens, UniProt P11511)
T1 construct: host or cells: human skin fibroblasts (HDF1616)
T1 sequence (P11511 1-503): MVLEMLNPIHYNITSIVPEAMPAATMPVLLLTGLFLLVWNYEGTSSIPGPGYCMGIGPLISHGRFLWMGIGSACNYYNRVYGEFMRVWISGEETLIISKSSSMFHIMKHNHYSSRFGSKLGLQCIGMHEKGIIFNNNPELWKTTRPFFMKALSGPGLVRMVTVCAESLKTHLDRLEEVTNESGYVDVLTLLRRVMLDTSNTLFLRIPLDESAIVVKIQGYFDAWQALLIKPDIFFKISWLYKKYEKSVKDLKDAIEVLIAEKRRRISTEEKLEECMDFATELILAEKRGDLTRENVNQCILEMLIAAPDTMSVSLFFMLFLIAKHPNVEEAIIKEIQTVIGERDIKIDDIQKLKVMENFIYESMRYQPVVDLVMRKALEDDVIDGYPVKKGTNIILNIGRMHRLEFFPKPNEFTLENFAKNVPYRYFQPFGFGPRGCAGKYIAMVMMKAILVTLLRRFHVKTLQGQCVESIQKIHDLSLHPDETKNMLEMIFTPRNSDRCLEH
Experiment: Aromatase activation effect in fibroblasts derived from human skin (3H2O release from 1β-3H-androst-4-ene-3,17-dione)
Format: cell-based
Conditions: for Aromatase activity: fibroblasts (HDF1616) derived from human skin, amount added 4.65 × 10^−6 mol/L, control 6.85; for Aromatase activation effect (in words): fibroblasts derived from human skin, 4.65×10^−6 mol/L, compared with control (no addition)
Description: The aromatase activation effect of the compounds 1 and 2 prepared in Production Example 1 was examined with reference to Stampfer M J, Willett W C, Colditz G A, Rosner B, Speizer F E and Hennenkens C H, N. Engl. J. Med., 313, 1044-1049, 1985.
Fibroblasts (HDF1616: KURABO) derived from human skin were planted in a 24-well cell culture plate (FALCON) to culture until it became confluent. The medium was removed and 900 μL of a serum-free medium was added to the wells to culture for 24 hr. At this time, the compound 1 or 2 prepared using an aqueous 95% ethanol solution such that the final concentration was 4.65×10^−6 mol/L was added to the wells. Also, a sample in which an aqueous 95% ethanol solution was added and a sample (no addition) in which no material was added were prepared as controls.
1β-3H-androst-4-ene-3,17-dione (Perkin Elmer) which was the substrate of aromatase was added in the serum-free medium such that the concentration was 37 kBq/100 μL and added in an amount of 100 μL in each well to culture for 24 hr. 900 μL of the culture product was taken, in a 2 mL tube from one well and 1 mL of CHCl3 was added to the cultured product, which was then stirred vigorously. The cultured product was centrifuged at 15,000 rpm for 10 min to transfer the upper layer (water layer) to another tube. 200 μL of Charcoal/Dextran (which is one obtained by suspending 5 g of Charcoal, dextran coated (SIGMA) in 50 mL of H2O) was added to the upper layer, which was fairly mixed and then allowed to stand at ambient temperature for 30 min. The mixture was centrifuged at 15,000 rpm for 10 min and the supernatant was transferred to a new tube. 1 mL of […] was added to the supernatant, which was then vigorously stirred and centrifuged at 15,000 rpm for 10 min and the upper layer (water layer) was added to 5 mL of Ultima Gold (Perkin Elmer) to measure the radioactivity of ^3H by a liquid scintillation counter (Perkin Elmer Tricarb 2550). The same serum-free medium containing no cell was incubated for the same hours without adding a drug, followed by the same procedures to measure the radioactivity of ^3H and the radioactivity was subtracted from the above measured radioactivity.
1β-3H-androst-4-ene-3,17-dione releases ^3H2O by an aromatase reaction and is converted into estrogen having no radioactivity. In this experimental method, the radioactivity of released ^3H2O is detected, showing that the higher the radioactivity is, the higher the aromatase activity is.

Row | Compound | Aromatase activity [fmol/day/well] | Aromatase activation effect (in words)
1 | C=C1CC[C@H](C)C(C)(C)[C@@H]1CC/C(C)=C/CC[C@@]1(C)[C@H](CCCO)/C(=C(/C)C=O)CC[C@]1(C)O [Compound 2] | 22.34 | activated aromatase existing in cells
2 | CC1=CC[C@H](C)C(C)(C)[C@@H]1CC/C(C)=C/CC[C@@]1(C)[C@H](CCCO)/C(=C(/C)C=O)CC[C@]1(C)O [Compound 1] | 21.68 | activated aromatase existing in cells
